Assays:
ABL1 (64-515) [1] = biological target: T1, ABL1 (64-515) (Homo sapiens (Human), UniProt P00519); experiment: Radio ABL1 (64-515) assay (radiometric filter-binding); type: biochemical
Ba/F3-BCR-ABL1-WT cells = experiment: cells; settings: Mus musculus, 48 h, read-out: Ba/F3-BCR-ABL1-WT IC50 [μM]
Source text: To generate Ba/F3 cells that depend on BCR-ABL1 expression for growth and survival, Ba/F3 cells were engineered to express BCR-ABL1 using retroviral transduction with a MSCV based retroviral vector containing a p210 BCR-ABL1 expression cassette. […] These cells are referred to as Ba/F3-BCR-ABL-WT.
Ba/F3-BCR-ABL1-WT cells and Ba/F3-BCR-ABL1-T315I cells were maintained in RPMI1640 media with L-glutamine, HEPES (Lonza) and 10% FBS (Gibco).
For each cell line, the cell density was adjusted to 50 000 cells/mL and 50 μL (2500 cells) added per well of a 384-well assay plate.
Test compounds were resuspended in DMSO at a concentration of 10 mM. A serial three-fold dilution of each compound with DMSO was performed in 384-well plates using the Janus Liquid Dispenser (PerkinElmer). Compound was delivered to the assay plates containing 2500 cells in a 50 μL volume via Acoustic delivery from an ATS-100 (EDC).
Cells were incubated at 37° C. in a humidified environment with 5% carbon dioxide for 48 hours. Britelite plus solution (Perkin Elmer) was prepared according to the manufacturer's instructions and 25 μL added to each well of the assay plate. […] The degree of luminescence correlates with the number of cells in each well. The effect of each inhibitor concentration can therefore be calculated and IC50 values generated.

ABL1 (64-515) [2] = biological target: T1, ABL1 (64-515); experiment: Caliper ABL1 (64-515) assay (microfluidic mobility shift); type: biochemical
Procedure: Expression and purification of human ABL was performed using standard expression purification procedures. […] The His-ABL was expressed in E. coli BL21 (DE3) and the ABL proteins were isolated by Ni-affinity on a Ni-NTA column (Qiagen). The His-tag was removed by PreScission protease (GE Healthcare) and the non-phosphoprylated ABL further purified on a Mono Q HR 10/10 (GE Healthcare, mono-phosphorylated ABL is about 10-20% of total ABL protein) and HiLoad 16/60 Superdex 200 size exclusion column (GE Healthcare).
All assays were performed in 384-well microtiter plates. Each assay plate contained 8-point serial dilutions for 40 test compounds, as well as four 8-point serial dilutions of staurosporine as a reference compound, plus 16 high and 16 low controls. Liquid handling and incubation steps were done on a Thermo CatX workstation equipped with Innovadyne Nanodrop Express. Between pipetting steps, tips were cleaned in wash cycles using wash buffer.
The assay plates were prepared by addition of 50 nL per well of compound solution in 90% DMSO. […] Plates with terminated kinase reactions were transferred to the Caliper LC3000 workstations for reading. Phosphorylated and unphosphorylated peptides were separated using the Caliper microfluidic mobility shift technology. Briefly, samples from terminated kinase reactions were applied to the chip. Analytes are transported through the chip by constant buffer flow and the migration of the substrate peptide is monitored by the fluorescence signal of its label. Phosphorylated peptide (product) and unphosphorylated peptide (substrate) are separated in an electric field by their charge/mass ratio. Kinase activities were calculated from the amounts of formed phospho-peptide. IC50 values were determined from percent inhibition values at different compound concentrations by non-linear regression analysis.
Test compounds were dissolved in DMSO (10 mM) and transferred into 1.4 mL flat bottom or V-shaped Matrix tubes carrying a unique 2D matrix. The stock solutions were stored at +2° C. if not used immediately. For the test procedure the vials were defrosted and identified by a scanner whereby a working sheet was generated that guided the subsequent working steps.
Compound dilutions were made in 96-well plates. This format enabled the assay of maximally 40 individual test compounds at 8 concentrations (single points) including 4 reference compounds. The dilution protocol included the production of “pre-dilution plates”, “master plates” and “assay plates”.
Polypropylene 96-well plates were used as pre-dilution plates. […] All dilution steps were done on a HamiltonSTAR robot.
These plates were used directly for the assay which was performed in a total volume of 9.05 μL.

BCR-ABL1+KCL-22 cells = experiment: Acquired resistance in BCR-ABL1+KCL-22 cells in vitro; type: cell-based; settings: cells treated every 3-4 days

T1 sequence (P00519 64-515): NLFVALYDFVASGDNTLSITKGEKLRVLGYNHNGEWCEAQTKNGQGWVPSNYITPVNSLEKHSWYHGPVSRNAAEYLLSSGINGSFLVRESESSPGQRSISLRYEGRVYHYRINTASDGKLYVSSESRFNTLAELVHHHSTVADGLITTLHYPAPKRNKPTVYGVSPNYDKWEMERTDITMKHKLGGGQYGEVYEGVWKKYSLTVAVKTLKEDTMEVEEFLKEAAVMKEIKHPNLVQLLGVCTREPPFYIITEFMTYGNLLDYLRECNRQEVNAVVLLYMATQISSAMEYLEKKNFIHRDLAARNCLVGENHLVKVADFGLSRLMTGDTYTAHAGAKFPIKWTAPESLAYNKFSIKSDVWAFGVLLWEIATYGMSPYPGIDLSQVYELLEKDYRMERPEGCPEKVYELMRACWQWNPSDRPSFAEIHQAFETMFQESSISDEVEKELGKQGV

SMILES | IC50 (ABL1 (64-515) [1]) [nM] | IC50 (Ba/F3-BCR-ABL1-WT cells) [µM] | IC50 (ABL1 (64-515) [2]) [nM] | time until acquired resistance (BCR-ABL1+KCL-22 cells) [days]
N#Cc1cncc(-c2cc(C(=O)Nc3ccc(OC(F)(F)Cl)cc3)cnc2N2C[C@@H](O)[C@@H](O)C2)c1 [Example 268] | 0.5 | 0.0032 | 0.4 | –
N[C@H]1CN(c2ccc(C(=O)Nc3ccc(OC(F)(F)Cl)cc3)cc2-c2cncc(F)c2)C[C@@H]1O [Example 285, 4-((3S,4S)-3-Amino-4-hydroxypyrrolidin-1-yl)-N-(4-(chlorodifluoromethoxy)phenyl)-3-(5-fluoropyridin-3-yl)benzamide] | 1 | 0.0053 | 0.6 | –
O=C(Nc1ccc(OC(F)(F)Cl)cc1)c1cnc(N2CC[C@@H](O)C2)c(-c2cncnc2)c1 [Example 170, (R)—N-(4-(Chlorodifluoromethoxy)phenyl)-6-(3-hydroxypyrrolidin-1-yl)-5-(pyrimidin-5-yl)nicotinamide] | – | 0.0005 | – | –
Cc1cn(-c2cc(NC(=O)c3ccc(C)c(Nc4nccc(-c5cccnc5)n4)c3)cc(C(F)(F)F)c2)cn1 [nilotinib] | – | – | – | 18 to 21
O=C(Nc1ccc(SC(F)(F)Cl)cc1)c1cnc(N2CC[C@@H](O)C2)c(-c2cncc(F)c2)c1 [Example 218, (R)—N-(4-((Chlorodifluoromethyl)thio)phenyl)-5′-fluoro-2-(3-hydroxypyrrolidin-1-yl)-[3,3′-bipyridine]-5-carboxamide] | 3 | 0.0009 | 0.6 | –
O=C(Nc1ccc(C(F)(F)C(F)(F)F)cc1)c1cnc(N2CC[C@@H](O)C2)c(-c2cncnc2)c1 [Example 208, (R)-6-(3-Hydroxypyrrolidin-1-yl)-N-(4-(perfluoroethyl)phenyl)-5-(pyrimidin-5-yl)nicotinamide] | < 3 | 0.0039 | 0.6 | –
O=C(Nc1ccc(OC(F)(F)Cl)cc1)c1cnc(N2CC[C@@H](CO)[C@@H](O)C2)c(-c2cncnc2)c1 [Example 257] | 3 | 0.0011 | 0.6 | –
CC(F)(F)Oc1ccc(NC(=O)c2cnc(N3CC[C@@H](O)C3)c(-c3cncnc3)c2)cc1 [Example 215, (R)—N-(4-(1,1-Difluoroethoxy)phenyl)-6-(3-hydroxypyrrolidin-1-yl)-5-(pyrimidin-5-yl)nicotinamide] | 1.2 | 0.0246 | 7.9 | –
Cc1ncncc1-c1cc(C(=O)Nc2ccc(OC(F)(F)Cl)cc2)ccc1N1C[C@H](O)[C@@H](O)C1 [Example 297, N-(4-(Chlorodifluoromethoxy)phenyl)-4-((3S,4S)-3,4-dihydroxypyrrolidin-1-yl)-3-(4-methylpyrimidin-5-yl)benzamide] | – | 0.0013 | 1.4 | –
O=C(Nc1ccc(S(F)(F)(F)(F)F)cc1)c1cnc(N2CC[C@@H](O)C2)c(-c2cncnc2)c1 [Example 216, (R)-6-(3-Hydroxypyrrolidin-1-yl)-5-(pyrimidin-5-yl)-N-(4-(pentafluorosulfanyl)phenyl)nicotinamide] | 3 | 0.0074 | 0.7 | –
O=C(Nc1ccc(OC(F)(F)F)cc1)c1cnc(N2CCCC2)c(-c2ccc(CO)nc2)c1 [Example 69, 6′-(Hydroxymethyl)-2-(pyrrolidin-1-yl)-N-(4-(trifluoromethoxy)phenyl)-[3,3′-bipyridine]-5-carboxamide] | < 3 | – | 0.5 | –
O=C(Nc1ccc(OC(F)(F)F)cc1)c1cnc(N2CCOCC2)c(-c2cncnc2)c1 [Example 148, 6-Morpholino-5-(pyrimidin-5-yl)-N-(4-(trifluoromethoxy)phenyl)nicotinamide] | 3 | – | 2.5 | –
Cc1ccc(-c2cc(C(=O)Nc3ccc(OC(F)(F)F)cc3)ccc2N2C[C@H](O)[C@@H](O)C2)cn1 [Example 9, 4-((3S,4S)-3,4-Dihydroxypyrrolidin-1-yl)-3-(6-methylpyridin-3-yl)-N-(4-(trifluoromethoxy)phenyl)benzamide] | 17 | – | 1.8 | –
CCN(CCO)c1ncc(C(=O)Nc2ccc(OC(F)(F)Cl)cc2)cc1-c1cncc(F)c1 [Example 183, N-(4-(Chlorodifluoromethoxy)phenyl)-2-(ethyl(2-hydroxyethyl)amino)-5′-fluoro-[3,3′-bipyridine]-5-carboxamide] | 2 | – | 0.5 | –
O=C(Nc1ccc(OC(F)(F)F)cc1)c1cnc(N2CCC3(COC3)C2)c(-c2cncnc2)c1 [Example 116, 5-(Pyrimidin-5-yl)-6-(2-oxa-6-azaspiro[3.4]octan-6-yl)-N-(4-(trifluoromethoxy)phenyl)nicotinamide] | < 3 | – | 3.5 | –

From patent publication US9278981B2, “Compounds and compositions for inhibiting the activity of ABL1, ABL2 and BCR-ABL1” (Novartis AG, priority 2012, dated 2016)
